According to patent US20240407993A1, “PEPTIDE HAVING ANTI-AGING ACTIVITY, AND USE THEREOF” (CAREGEN CO., LTD., priority 2021, published 2024):

Assays:
HaCaT cells = test: Intracellular ROS level after UVB irradiation (DCFH-DA, FACS) in keratinocytes; type: cell-based, human; settings: 15 mJ/cm^2 UVB, peptide 1, 10, 50 μM, 24 hours after irradiation, FIG. 4B
Protocol: (§1) The reactive oxygen species level increases when UV is irradiated. Therefore, it was confirmed whether the reactive oxygen species level decreased again and the aging phenomenon caused by oxidative stress in cells was inhibited when treated with the peptide of the present invention.
(§2) First, NIH3T3 cells and HaCaT cells were seeded in a 6-well plate at a cell density of 5×10^5 cell/well, respectively, and then the cells were cultured in DMEM medium containing 10% fetal bovine serum (FBS) for 24 hours. The cultured cells were washed once with serum free DMEM medium, and then the peptide of the present invention was mixed in 1 mL of the serum free DMEM medium at each of concentrations of 1, 10, and 50 μM, and dispensed into the cells. A positive control (PC) was treated with 2.5 mM of N-Acetylcysteine (NaC) instead of the above peptide.
(§3) The cells were cultured in a CO2 incubator at 37° C. for 1 hour. The medium of the cultured cells was transferred to a tube, 1 ml of PBS was added, and then the NIH3T3 cells were irradiated with 8 J/cm^2 of UVA and the HaCaT cells were irradiated with 15 mJ/cm^2 of UVB using a UV irradiator (VILBER LOURMAT, Cat No.: 3102-BSU, France). […] After centrifugation, the cells were washed with PBS, and a fluorescence value was measured through FACS.

AQP3 = AQP3 mRNA level by RT-PCR in keratinocytes; type: cell-based, human; settings: HaCaT cells, peptide 1, 10, 50 μM, 24 hours; FIGS. 3A, 3C
Protocol: as §2, with “First,” for “First, NIH3T3 cells and”, “3×10^5” for “5×10^5”, “cell/well,” for “cell/well, respectively,”, “100 nM” for “2.5 mM”, “EGF” for “N-Acetylcysteine (NaC)”, “peptide. The cells were cultured in a CO2 incubator at 37° C. for 24 hours.” for “peptide.”
(§4) The cultured cells were washed twice with PBS, and then RNA was extracted from the cells using easy blue (iNtRON, Cat. No.: 17061, Korea). The extracted RNA was subjected to RT reaction using a kit (enzynomics, Cat. No.: RT200, Korea). Thereafter, RT-PCR was performed using a PCR kit (enzynomics, Cat. No.: R581T, Korea). The sequences of the primers of AQP3 and SIRT1 used in RT-PCR and the sequence of the primer of GAPDH used to compare the total RNA amount of each treatment group are shown in [Table 2].

NIH3T3 cells = test: Intracellular ROS level after UVA irradiation (DCFH-DA, FACS) in fibroblasts; type: cell-based, mouse; settings: 8 J/cm^2 UVA, peptide 1, 10, 50 μM, 24 hours after irradiation, FIG. 4A
Protocol: as §1, §2, §3

SIRT1 [1] = test: SIRT1 mRNA level by RT-PCR in keratinocytes; type: cell-based, human; settings: HaCaT cells, peptide 1, 10, 50 μM, 24 hours; FIGS. 3A, 3B
Protocol: as §2, with “First,” for “First, NIH3T3 cells and”, “3×10^5” for “5×10^5”, “cell/well,” for “cell/well, respectively,”, “100 nM” for “2.5 mM”, “EGF” for “N-Acetylcysteine (NaC)”, “peptide. The cells were cultured in a CO2 incubator at 37° C. for 24 hours.” for “peptide.”
as §4

SIRT1 [2] = test: SIRT1 mRNA level decreased by UV irradiation, RT-PCR in keratinocytes; type: cell-based, human; settings: HaCaT cells, 20 mJ/cm^2 UVB, peptide 1, 10, 50 μM, 4 hours after irradiation; FIGS. 7A, 7B
Protocol: The expression of genes related to aging is inhibited when irradiated with UV.
as §2, with “First,” for “First, NIH3T3 cells and”, “cell/well,” for “cell/well, respectively,”
The cells were cultured in a CO2 incubator at 37° C. for 1 hour. The medium of the cultured cells was transferred to a tube (e-tube), 1 ml of PBS was added, and irradiation was performed with 20 mJ/cm^2 of UVB using a UV irradiator (VILBER LOURMAT, Cat No.: 3102-BSU, France). After removing PBS, 900 μL of the medium transferred to the tube was added, and culture was performed in a CO2 incubator at 37° C. for 4 hours. The cultured cells were washed twice with PBS, and then RNA was extracted from the cells using easy blue (iNtRON, Cat. No.: 17061, Korea). The extracted RNA was subjected to RT reaction using a kit (enzynomics, Cat. No.: RT200, Korea). Thereafter, RT-PCR was performed using a PCR kit (enzynomics, Cat. No.: R581T, Korea). […]

hyaluronic acid = test: Hyaluronic acid secretion (HA ELISA) in keratinocytes; type: cell-based, human; settings: HaCaT cells, peptide 1, 10, 50 μM, 24 hours; FIG. 2
Protocol: First, HaCaT cells (human keratinocyte cell line) were seeded in a 48-well plate at a cell density of 1×10^5 cell/well, and then the cells were cultured in DMEM medium containing 10% fetal bovine serum (FBS) for 24 hours. The cultured cells were washed once with serum free DMEM medium, and the peptide of the present invention was mixed in 2 mL of the serum free DMEM medium at each of concentrations of 1, 10, and 50 μM, and dispensed into three wells by 500 μL per condition. A positive control (PC) was treated with 100 nM of EGF instead of the above peptide. The cells were cultured in a CO2 incubator at 37° C. for 24 hours.
The medium of the cultured HaCaT cells was centrifuged to settle a suspended matter, and a supernatant was transferred to an e-tube and used to perform HA ELISA (ECHELON biosciences, Cat No.: K-1200, USA).

LCACCLHNCNECQ was tested, and the “intracellular reactive oxygen species level increased by UV irradiation” value (HaCaT cells) was “decreased”, the “mRNA level of AQP3” value (AQP3) was “increased” and the “intracellular reactive oxygen species level increased by UV irradiation” value (NIH3T3 cells) was “decreased”. For the same sequence, the “mRNA level of SIRT1” value (SIRT1 [1]) was “increased”, the “mRNA level of SIRT1 decreased by UV irradiation” value (SIRT1 [2]) was “increased again” and the “secretion of hyaluronic acid protein” value (hyaluronic acid) was “gradually increased as the concentration of the peptide increased”.
